Experimental data published in patent US10479780B2, “Aminopyrazole derivatives” (Chugai Seiyaku Kabushiki Kaisha, priority 2015, dated 2019).

What was measured:
Type in all cases: biochemical
[1] = target: T1, human Yes1 enzyme (Homo sapiens, UniProt P07947); assay: Yes1 enzyme inhibitory activity (time-resolved fluorometry, biotinylated peptide phosphorylation); settings: biotinylated peptide phosphorylation, read-out: YES_IC50
T1 construct: made in house
Outline: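 Inhibition was expressed against a compound-free control to give IC50, using TR-FRET read-out (Eu-cryptate anti-pTyr antibody, streptavidin-XL665).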

[2] = target: T2, human Src enzyme (Homo sapiens, UniProt P12931); assay: Src enzyme inhibitory activity (time-resolved fluorometry, biotinylated peptide phosphorylation); settings: biotinylated peptide phosphorylation, read-out: SRC_IC50
T2 construct: purchased Carna Biosciences, Inc. 08-173
Outline: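 Compounds were tested for blocking tyrosine phosphorylation of a biotinylated peptide substrate by recombinant human Src. Phosphorylated product was quantified by time-resolved fluorometry using europium cryptate and XL665 conjugates, and IC50 was calculated against the compound-free control.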

[3] = target: T3, human Lck enzyme (Homo sapiens, UniProt P06239); assay: Lck enzyme inhibitory activity (time-resolved fluorometry, biotinylated peptide phosphorylation); settings: biotinylated peptide phosphorylation, read-out: LCK_IC50
T3 construct: purchased Carna Biosciences, Inc. 08-170
Outline: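 Readout pairs a europium cryptate-labelled anti-phosphotyrosine antibody with XL665-streptavidin, measured by time-resolved fluorescence. IC50 derived from percent inhibition against untreated controls.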

T1 sequence (P07947 whole entry): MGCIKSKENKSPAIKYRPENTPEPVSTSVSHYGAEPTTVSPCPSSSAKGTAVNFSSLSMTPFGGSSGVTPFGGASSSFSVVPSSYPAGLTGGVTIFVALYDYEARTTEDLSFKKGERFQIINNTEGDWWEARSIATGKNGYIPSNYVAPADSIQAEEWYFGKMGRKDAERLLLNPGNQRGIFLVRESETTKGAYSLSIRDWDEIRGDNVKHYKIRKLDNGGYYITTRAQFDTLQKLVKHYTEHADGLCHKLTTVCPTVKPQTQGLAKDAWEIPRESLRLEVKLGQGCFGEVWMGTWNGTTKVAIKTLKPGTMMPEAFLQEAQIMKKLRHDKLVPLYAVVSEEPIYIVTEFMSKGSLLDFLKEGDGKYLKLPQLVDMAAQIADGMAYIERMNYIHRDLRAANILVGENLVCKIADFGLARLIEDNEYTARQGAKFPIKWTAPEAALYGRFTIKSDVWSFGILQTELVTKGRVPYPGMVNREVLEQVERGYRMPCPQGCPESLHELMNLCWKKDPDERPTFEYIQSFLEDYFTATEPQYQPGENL
T3 sequence (P06239 whole entry): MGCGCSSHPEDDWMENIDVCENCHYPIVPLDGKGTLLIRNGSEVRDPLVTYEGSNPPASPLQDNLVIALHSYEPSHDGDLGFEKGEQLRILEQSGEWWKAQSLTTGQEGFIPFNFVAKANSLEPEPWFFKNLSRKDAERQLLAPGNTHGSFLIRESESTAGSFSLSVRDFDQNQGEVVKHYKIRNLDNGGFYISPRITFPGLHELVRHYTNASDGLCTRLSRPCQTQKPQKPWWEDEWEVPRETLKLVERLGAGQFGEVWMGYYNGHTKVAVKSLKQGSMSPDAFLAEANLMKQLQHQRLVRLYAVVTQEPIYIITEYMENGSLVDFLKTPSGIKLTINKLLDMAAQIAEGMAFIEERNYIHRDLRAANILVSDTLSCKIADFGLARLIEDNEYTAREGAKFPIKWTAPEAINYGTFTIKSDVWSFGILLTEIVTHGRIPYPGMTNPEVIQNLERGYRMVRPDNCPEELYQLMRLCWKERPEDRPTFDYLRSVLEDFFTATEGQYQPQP
T2 sequence (P12931 whole entry): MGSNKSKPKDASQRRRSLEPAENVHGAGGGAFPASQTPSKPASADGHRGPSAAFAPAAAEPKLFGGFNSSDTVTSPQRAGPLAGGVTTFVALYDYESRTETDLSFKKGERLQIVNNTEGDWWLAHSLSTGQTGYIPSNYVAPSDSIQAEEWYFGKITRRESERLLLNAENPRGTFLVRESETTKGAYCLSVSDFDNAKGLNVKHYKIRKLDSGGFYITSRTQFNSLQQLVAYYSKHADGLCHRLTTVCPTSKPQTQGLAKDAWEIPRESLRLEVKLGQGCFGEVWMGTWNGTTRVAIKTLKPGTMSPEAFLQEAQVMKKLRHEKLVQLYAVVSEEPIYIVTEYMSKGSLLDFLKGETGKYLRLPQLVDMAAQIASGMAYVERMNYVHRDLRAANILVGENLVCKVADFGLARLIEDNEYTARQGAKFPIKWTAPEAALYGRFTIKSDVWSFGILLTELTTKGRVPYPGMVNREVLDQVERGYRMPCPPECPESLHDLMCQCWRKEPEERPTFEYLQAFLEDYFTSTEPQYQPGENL

| IC50 [1] [nM] | IC50 [2] [nM] | IC50 [3] [nM] | SMILES |
| --- | --- | --- | --- |
| 1.2 | 21 | 4.9 | Cc1cc2cc(C(=O)c3cnn(-c4cnc(Oc5c(F)cccc5F)cc4C)c3N)[nH]c2cc1N1C(=O)CNC1=O [Example 5-1-442, 3-[2-[5-amino-1-[6-(2,6-difluorophenoxy)-4-methylpyridin-3-yl]pyrazolo-4-carbonyl]-5-methyl-1H-indol-6-yl]imidazolidine-2,4-dione] |
| 1.4 | 25 | 4.9 | Cc1cc2cc(C(=O)c3cnn(-c4cnc(Oc5c(F)cccc5F)cc4C)c3N)[nH]c2cc1N1C(=O)N[C@@H](C)C1=O [Example 5-1-443, (5S)-3-[2-[5-amino-1-[6-(2,6-difluorophenoxy)-4-methylpyridin-3-yl]pyrazole-4-carbonyl]-5-methyl-1H-indol-6-yl]-5-methylimidazolidine-2,4-dione] |
| 0.65 | 13 | 3.9 | Cc1cc2cc(C(=O)c3cnn(-c4ccc(Oc5ccccc5F)cc4C)c3N)[nH]c2cc1N1C(=O)N[C@@H](C)C1=O [Example 5-1-444, (5S)-3-[2-[5-amino-1-[4-(2-fluorophenoxy)-2-methylphenyl]pyrazole-4-carbonyl]-5-methyl-1H-indol-6-yl]-5-methylimidazolidine-2,4-dione] |
| 0.54 | 12 | 3.1 | Cc1cc(Oc2ccccc2F)ccc1-n1ncc(C(=O)c2cc3cc(F)c(N4C(=O)CNC4=O)cc3[nH]2)c1N [Example 5-1-445, 3-[2-[5-amino-1-[4-(2-fluorophenoxy)-2-methylphenyl]pyrazole-4-carbonyl]-5-fluoro-1H-indol-6-yl]imidazolidine-2,4-dione] |
| 0.44 | 13 | 2.1 | Cc1cc(Oc2ccccc2F)ccc1-n1ncc(C(=O)c2cc3cc(F)c(N4C(=O)N[C@@H](CO)C4=O)cc3[nH]2)c1N [Example 5-1-446, (5S)-3-[2-[5-amino-1-[4-(2-fluorophenoxy)-2-methylphenyl]pyrazole-4-carbonyl]-5-fluoro-1H-indol-6-yl]-5-(hydroxymethyl)imidazolidine-2,4-dione] |
| 2 | 84 | 12 | Cc1cc(Oc2ccccc2F)ccc1-n1ncc(C(=O)c2cc3cc(F)c(N4C(=O)N[C@@H](C(C)C)C4=O)cc3[nH]2)c1N [Example 5-1-447, (5S)-3-[2-[5-amino-1-[4-(2-fluorophenoxy)-2-methylphenyl]pyrazole-4-carbonyl]-5-fluoro-1H-indol-6-yl]-5-propan-2-ylimidazolidine-2,4-dione] |
| 1.2 | 23 | 3.9 | Cc1cc(Oc2ccccc2F)ccc1-n1ncc(C(=O)c2cc3cc(F)c(N4C(=O)[C@@H]5CCCN5C4=O)cc3[nH]2)c1N [Example 5-1-448, (7aS)-2-[2-[5-amino-1-[4-(2-fluorophenoxy)-2-methylphenyl]pyrazole-4-carbonyl]-5-fluoro-1H-indol-6-yl]-5,6,7,7a-tetrahydropyrrolo [1,2-c]imidazole-1,3-dione] |
| 0.66 | 13 | 3.3 | Cc1cc(Oc2ccccc2F)ccc1-n1ncc(C(=O)c2cc3cc(F)c(N4C(=O)[C@@H]5C[C@@H](O)CN5C4=O)cc3[nH]2)c1N [Example 5-1-449, (6R,7aS)-2-[2-[5-amino-1-[4-(2-fluorophenoxy)-2-methylphenyl]pyrazole-4-carbonyl]-5-fluoro-1H-indol-6-yl]-6-hydroxy-5,6,7,7a-tetrahydropyrrolo[1,2-c]imidazole-1,3-dione] |
| 3 | 150 | 22 | Cc1cc(Oc2ccccc2F)ccc1-n1ncc(C(=O)c2cc3cc(F)c(N4C(=O)NC5(CCCCC5)C4=O)cc3[nH]2)c1N [Example 5-1-450, 3-[2-[5-amino-1-[4-(2-fluorophenoxy)-2-methylphenyl]pyrazole-4-carbonyl]-5-fluoro-1H-indol-6-yl]-1,3-diazaspiro[4.5]decane-2,4-dione] |
| 0.89 | 41 | 4.6 | Cc1cc2cc(C(=O)c3cnn(-c4cnc(Oc5c(F)cccc5F)cc4C)c3N)[nH]c2cc1N1C(=O)N[C@@H](CO)C1=O [Example 5-1-451, (5S)-3-[2-[5-amino-1-[6-(2,6-difluorophenoxy)-4-methylpyridin-3-yl]pyrazole-4-carbonyl]-5-methyl-1H-indol-6-yl]-5-(hydroxymethyl) imidazolidine-2,4-dione] |
| 5.4 | 150 | 28 | Cc1cc2cc(C(=O)c3cnn(-c4cnc(Oc5c(F)cccc5F)cc4C)c3N)[nH]c2cc1N1C(=O)N[C@@H](Cc2ccccc2)C1=O [Example 5-1-452, (5S)-3-[2-[5-amino-1-[6-(2,6-difluorophenoxy)-4-methylpyridin-3-yl]pyrazole-4-carbonyl]-5-methyl-1H-indol-6-yl]-5-benzylimidazolidine-2,4-dione] |
| 3.2 | 130 | 12 | Cc1cc2cc(C(=O)c3cnn(-c4cnc(Oc5c(F)cccc5F)cc4C)c3N)[nH]c2cc1N1C(=O)N[C@@H](C(C)C)C1=O [Example 5-1-453, (5S)-3-[2-[5-amino-1-[6-(2,6-difluorophenoxy)-4-methylpyridin-3-yl]pyrazole-4-carbonyl]-5-methyl-1H-indol-6-yl]-5-propan-2-ylimidazolidine-2,4-dione] |
| 1.7 | 40 | 5.1 | Cc1cc2cc(C(=O)c3cnn(-c4cnc(Oc5c(F)cccc5F)cc4C)c3N)[nH]c2cc1N1C(=O)[C@@H]2CCCN2C1=O [Example 5-1-454, (7aS)-2-[2-[5-amino-1-[6-(2,6-difluorophenoxy)-4-methylpyridin-3-yl]pyrazole-4-carbonyl]-5-methyl-1H-indol-6-yl]-5,6,7,7a-tetrahydropyrrolo[1,2-c]imidazole-1,3-dione] |
| 0.86 | 23 | 2.6 | Cc1cc2cc(C(=O)c3cnn(-c4cnc(Oc5c(F)cccc5F)cc4C)c3N)[nH]c2cc1N1C(=O)[C@@H]2C[C@@H](O)CN2C1=O [Example 5-1-455, (6R,7aS)-2-[2-[5-amino-1-[6-(2,6-difluorophenoxy)-4-methylpyridin-3-yl]pyrazole-4-carbonyl]-5-methyl-1H-indol-6-yl]-6-hydroxy-5,6,7,7a-tetrahydropyrrolo[1,2-c]imidazole-1,3-dione] |
| 0.4 | 8.8 | 2.2 | Cc1cc2cc(C(=O)c3cnn(-c4ccc(Oc5ccccc5F)cc4C)c3N)[nH]c2cc1N1C(=O)N[C@@H](CO)C1=O [Example 5-1-456, (5S)-3-[2-[5-amino-1-[4-(2-fluorophenoxy)-2-methylphenyl]pyrazole-4-carbonyl]-5-methyl-1H-indol-6-yl]-5-(hydroxymethyl)imidazolidine-2,4-dione] |
| 2.3 | 78 | 19 | Cc1cc2cc(C(=O)c3cnn(-c4ccc(Oc5ccccc5F)cc4C)c3N)[nH]c2cc1N1C(=O)N[C@@H](Cc2ccccc2)C1=O [Example 5-1-457, (5S)-3-[2-[5-amino-1-[4-(2-fluorophenoxy)-2-methylphenyl]pyrazole-4-carbonyl]-5-methyl-1H-indol-6-yl]-5-benzylimidazolidine-2,4-dione] |
| 0.73 | 16 | 4 | Cc1cc2cc(C(=O)c3cnn(-c4ccc(Oc5ccccc5F)cc4C)c3N)[nH]c2cc1N1C(=O)[C@@H]2CCCN2C1=O [Example 5-1-458, (7aS)-2-[2-[5-amino-1-[4-(2-fluorophenoxy)-2-methylphenyl]pyrazole-4-carbonyl]-5-methyl-1H-indol-6-yl]-5,6,7,7a-tetrahydropyrrolo[1,2-c]imidazole-1,3-dione] |
| 0.44 | 7.7 | 2.7 | Cc1cc2cc(C(=O)c3cnn(-c4ccc(Oc5ccccc5F)cc4C)c3N)[nH]c2cc1N1C(=O)[C@@H]2C[C@@H](O)CN2C1=O [Example 5-1-459, (6R,7aS)-2-[2-[5-amino-1-[4-(2-fluorophenoxy)-2-methylphenyl]pyrazole-4-carbonyl]-5-methyl-1H-indol-6-yl]-6-hydroxy-5,6,7,7a-tetrahydropyrrolo[1,2-c]imidazole-1,3-dione] |
| 4.5 | 770 | 200 | Cc1cc2cc(C(=O)c3cnn(-c4cnc(Oc5ccccc5F)cc4C)c3N)[nH]c2cc1NS(=O)(=O)c1cc(F)cc(F)c1 [Example 5-1-460, N-[2-[5-amino-1-[6-(2-fluorophenoxy)-4-methylpyridin-3-yl]pyrazole-4-carbonyl]-5-methyl-1H-indol-6-yl]-3,5-difluorobenzenesulfonamide] |
| 17 | 3500 | 590 | Cc1cc(C)c(S(=O)(=O)Nc2cc3[nH]c(C(=O)c4cnn(-c5cnc(Oc6ccccc6F)cc5C)c4N)cc3cc2C)c(C)c1 [Example 5-1-461] |
| 6.1 | 1000 | 260 | Cc1cccc(S(=O)(=O)Nc2cc3[nH]c(C(=O)c4cnn(-c5cnc(Oc6ccccc6F)cc5C)c4N)cc3cc2C)c1 [Example 5-1-462, N-[2-[5-amino-1-[6-(2-fluorophenoxy)-4-methylpyridin-3-yl]pyrazole-4-carbonyl]-5-methyl-1H-indol-6-yl]-3-methylbenzenesulfonamide] |
| 12 | 1900 | 420 | Cc1cc2cc(C(=O)c3cnn(-c4cnc(Oc5ccccc5F)cc4C)c3N)[nH]c2cc1NS(=O)(=O)c1cccc(C(F)(F)F)c1 [Example 5-1-463, N-[2-[5-amino-1-[6-(2-fluorophenoxy)-4-methylpyridin-3-yl]pyrazole-4-carbonyl]-5-methyl-1H-indol-6-yl]-3-(trifluoromethyl) benzenesulfonamide] |
